Reference: patent US6388105B1, “Benzofuran, indole or benzothiophene 2,4-pentadienoic acid derivatives having selective activity for retinoid X (RXR) receptors” (Allergan Sales, Inc., priority 2001, dated 2002)

Assays:
RXRβ [1] = target: T1, RXRβ (Homo sapiens, UniProt P28702); assay: ligand binding assay, RXRβ; details: read-out: Kd (nM) RXR β
T1 construct: expressed in transfected cells
T1 sequence (P28702 1-533): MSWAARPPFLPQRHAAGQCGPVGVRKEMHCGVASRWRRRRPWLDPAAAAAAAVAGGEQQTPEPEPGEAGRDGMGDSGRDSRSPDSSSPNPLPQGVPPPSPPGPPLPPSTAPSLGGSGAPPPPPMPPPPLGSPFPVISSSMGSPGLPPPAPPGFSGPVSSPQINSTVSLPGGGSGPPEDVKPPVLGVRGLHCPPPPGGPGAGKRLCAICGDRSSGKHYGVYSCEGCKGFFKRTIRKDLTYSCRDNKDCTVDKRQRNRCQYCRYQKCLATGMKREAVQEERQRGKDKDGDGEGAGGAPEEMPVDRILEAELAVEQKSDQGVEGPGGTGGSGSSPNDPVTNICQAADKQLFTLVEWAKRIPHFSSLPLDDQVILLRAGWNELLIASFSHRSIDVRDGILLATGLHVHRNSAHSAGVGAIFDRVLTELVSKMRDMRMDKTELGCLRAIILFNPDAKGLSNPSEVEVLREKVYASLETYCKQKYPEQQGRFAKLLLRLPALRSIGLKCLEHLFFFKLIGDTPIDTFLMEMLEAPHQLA
Source text: (§1) A holoreceptor transactivation assay and a ligand binding assay which measure the antagonist/agonist like activity of the compounds of the invention, or their ability to bind to the several retinoid receptor subtypes, respectively, are described in published PCT Application No. WO WO93/11755 (particularly on pages 30-33 and 37-41) published on Jun. 24, 1993, the specification of which is also incorporated herein by reference. A detailed experimental procedure for holoreceptor transactivations has been described by Heyman et al. Cell 68, 397-406, (1992); Allegretto et al. J. Biol. Chem. 268, 26625-26633, and Mangelsdorf et al. The Retinoids: Biology, Chemistry and Medicine, pp 319-349, Raven Press Ltd., New York, which are expressly incorporated herein by reference. The results obtained in this assay are expressed in EC50 numbers, as they are also in the chimeric receptor transactivation assay. The results of ligand binding assay are expressed in Kd numbers. (See Cheng et al. Biochemical Pharmacology Vol. 22 pp 3099-3108, expressly incorporated herein by reference.)
(§2) Table 1 discloses the activity of certain exemplary compounds of the invention in the above-described holoreceptor transactivation assay and a ligand binding assays. Particularly, the transactivation data pertaining to RAR receptors were obtained in the chimeric assay, and the data pertaining to transactivation of RXR receptors were obtained in the holoreceptor transactivation assay.

RXRγ [2] = target: T2, RXRγ (Homo sapiens, UniProt P48443); assay: ligand binding assay, RXRγ; details: read-out: Kd (nM) RXR γ
T2 construct: expressed in transfected cells
T2 sequence (P48443 1-463): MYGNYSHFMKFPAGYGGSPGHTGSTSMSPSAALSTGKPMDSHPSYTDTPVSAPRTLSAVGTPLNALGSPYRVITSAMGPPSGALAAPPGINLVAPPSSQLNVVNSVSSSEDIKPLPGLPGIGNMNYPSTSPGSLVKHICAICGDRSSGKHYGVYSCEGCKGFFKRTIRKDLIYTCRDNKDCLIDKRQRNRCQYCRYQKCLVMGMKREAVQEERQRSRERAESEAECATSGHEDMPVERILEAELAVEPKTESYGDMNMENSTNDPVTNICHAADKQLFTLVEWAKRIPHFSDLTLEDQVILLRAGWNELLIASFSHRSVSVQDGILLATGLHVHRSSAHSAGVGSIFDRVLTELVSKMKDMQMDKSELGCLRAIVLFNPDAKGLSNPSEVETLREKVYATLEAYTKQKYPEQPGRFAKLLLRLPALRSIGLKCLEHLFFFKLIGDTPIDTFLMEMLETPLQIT
Source text: as §1, §2

RXRγ [3] = target: T2, RXRγ; assay: holoreceptor transactivation assay, RXRγ; type: cell-based; details: for EC50: read-out: EC50 (nM) RXR γ
Source text: as §1, §2

RXRβ [4] = target: T1, RXRβ; assay: holoreceptor transactivation assay, RXRβ; type: cell-based; details: for EC50: read-out: EC50 (nM) RXR β
Source text: as §1, §2

RXRα [5] = target: T3, RXRα (Homo sapiens, UniProt P19793); assay: ligand binding assay, RXRα; details: read-out: Kd (nM) RXR α
T3 construct: expressed in transfected cells
T3 sequence (P19793 1-462): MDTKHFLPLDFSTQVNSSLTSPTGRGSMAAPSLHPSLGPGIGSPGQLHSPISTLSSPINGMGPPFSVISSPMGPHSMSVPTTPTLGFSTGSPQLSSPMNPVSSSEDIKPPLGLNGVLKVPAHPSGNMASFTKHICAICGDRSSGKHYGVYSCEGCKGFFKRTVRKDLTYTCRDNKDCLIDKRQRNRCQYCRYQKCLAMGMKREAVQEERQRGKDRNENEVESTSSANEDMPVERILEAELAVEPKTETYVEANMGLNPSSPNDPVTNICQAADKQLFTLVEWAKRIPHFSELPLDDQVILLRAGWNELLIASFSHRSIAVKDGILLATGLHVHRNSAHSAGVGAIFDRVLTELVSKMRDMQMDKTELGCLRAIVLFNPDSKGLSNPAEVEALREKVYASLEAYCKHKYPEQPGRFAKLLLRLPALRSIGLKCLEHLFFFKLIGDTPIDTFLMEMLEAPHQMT
Source text: as §1, §2

RXRα [6] = target: T3, RXRα; assay: holoreceptor transactivation assay, RXRα; type: cell-based; details: for EC50: read-out: EC50 (nM) RXR α
Source text: as §1, §2

Kd (RXRβ [1]) [nM] | Kd (RXRγ [2]) [nM] | % Eff RXR γ (RXRγ [3]) [%] | EC50 (RXRγ [3]) [nM] | % Eff RXR β (RXRβ [4]) [%] | EC50 (RXRβ [4]) [nM] | Kd (RXRα [5]) [nM] | % Eff RXR α (RXRα [6]) [%] | EC50 (RXRα [6]) [nM] | SMILES
17 | 48 | 110 | 0.8 | 116 | 4.3 | 6.8 | 102 | 0.7 | CCc1oc2ccc([C@@]3(C)C[C@H]3/C=C/C(C)=C/C(=O)O)cc2c1C(C)C [Compound 28, 3-Methyl-6(S),7(S)-methano-7-(2-ethyl-3-iso-propyl-benzofur-5-yl)-octa-2(E),4(E)-dienoic acid]
20 | 40 | 131 | 2.9 | 150 | 17 | 11 | 144 | 1.5 | CCc1oc2ccc([C@@]3(C)C[C@H]3/C=C/C(C)=C/C(=O)O)cc2c1C(C)(C)C [Compound 12, 3-Methyl-6(S),7(S)-methano-7-(3-t-butyl-2-ethyl-benzofur-5-yl)-octa-2(E),4(E)-dienoic acid]
288 | 256 | 90 | 12 | 90 | 44 | 71 | 130 | 6 | CCc1oc2ccc([C@@]3(C)C[C@H]3/C=C/C(C)=C/C(=O)O)cc2c1CC [Compound 20, 3-Methyl-6(S),7(S)-methano-7-(2,3-di-ethyl-benzofur-5-yl)-octa-2(E),4(E)-dienoic acid]
98 | > 1000 | 101 | 2.6 | 96 | 9.3 | 19.5 | 100 | 2.2 | CCCCCc1oc2ccc([C@@]3(C)C[C@H]3/C=C/C(C)=C/C(=O)O)cc2c1C(C)(C)C [Compound 38, 3-Methyl-6(S),7(S)-methano-7-(3-t-butyl-2-n-pentyl-benzofur-5-yl)-octa-2(E),4(E)-dienoic acid]
